Measurements from patent US12465604B2 (priority 2015, dated 2025).
Marks after values point to notes of the source that are not given here.

Tests used:
[1] = tested on: NL4-3.tCD34.R-.E-/VSV-G latent provirus in Nalm wt (+/c) cells; type: cell-based, HIV
[2] = tested on: NL4-3.tCD34.R-.E-/VSV-G latent provirus in Nalm LEDGF/p75 KO (−/−) cells; type: cell-based, HIV
[3] = tested on: HIV-based vector integration sites in SupT1 cells; assay: Integration site distribution of HIV-based vector near mapped genomic features; type: cell-based
[4] = tested on: HIV-based vector integration sites in SupT1 cells; assay: Integration frequency near safe harbor criteria; type: cell-based
[5] = tested on: single-round HIV-based lentiviral vector in SupT1 cells; assay: Transduction efficiency of single-round HIV-based lentiviral vector (eGFP flow cytometry); type: cell-based; settings: dilution series, data not shown
Text: In a next step we employed the recently developed LEDGINs, small molecules that inhibit LEDGF/p75-IN interaction and inhibit integration of HIV provirus (Christ et al., 2010, above) to investigate the impact of LEDGIN treatment on the HIV reservoir in cell culture. SupT1 cells were transduced with a single-round HIV-based lentiviral vector expressing the enhanced Green Fluorescent Protein (eGFP) reporter protein and treated with a dilution series of LEDGIN CX014442 (Christ et al 2012, above). […] In a first step, we determined integration site distribution of HIV-based viral vector integration sites (Gijsbers et al., 2009; Marshall et al., 2007). The number of integration sites is indicated for each data set (Table 2). First, we analysed lentiviral integration relative to a set of genomic features.

[6] = tested on: HIV OGH double reporter virus in SupT1 cells; type: cell-based, HIV-1; settings: SupT1, 3 days post infection, increasing concentrations
[7] = tested on: HIV NL4-3.tCD34.R-.E- in SupT1 cells; assay: microbe, parasite or virus in culture; type: cell-based; settings: Human immunodeficiency virus 1, NL43, SUP-T1, read-out: inhibition of reactivation from latency
[8] = tested on: HIV-OGH double reporter virus in SupT1 cells; assay: Reactivation with TNFα, SupT1 cells infected with HIV-OGH double reporter virus; type: cell-based, HIV-1; settings: SupT1, 50 μM
Protocol: To corroborate these findings SupT1 cells were infected with the HIV-OGH double reporter virus under different LEDGIN (CX014442) concentrations. SupT1 cells were infected and reactivated under conditions similar to the experiment with HIV tCD34 (FIGS. 2 and 5). Data are represented in FIG. 6. Two different virus dilutions are depicted in panel A and B. In both graphs the percentage eGFP+, mKO2+ cells and overall % mKO2 positive cells is plotted after stimulation with DMSO or TNFα for 24 h. The dashed lines show an increase in percentage of eGFP+, mKO2+ cells after stimulation with TNFα compared to DMSO, while the overall percentage of mKO2 positive cells remains constant. LEDGIN treatment reduces the reactivation of eGFP+, mKO2+ cells in a concentration-dependent manner, with 50 μM of CX014442 reducing reactivation to only 1.5-2 fold (FIG. 6C).
11 days post infection the infected cells were reactivated from latency using TNFalpha (10 ng/mL, Immunosource), SAHA (0.3 to 3 μM, AIDS reagents), prostratin (5 μM, AIDS reagents) or PMA (0.3 μM, AIDS reagents) 24 hours prior to analysis by flow cytometry. Time courses and drug concentrations are indicated in the individual experiments. LEDGINs were synthesized by the Cistim/CD3-facility (courtesy of Dr. A. Marchand).

[9] = tested on: HIV-1; assay: 'late' IC50 stated in legend of FIG. 8; type: cell-based; settings: Human immunodeficiency virus 1
[10] = tested on: OGH reporter virus in activated primary CD4+ T-cells; settings: 3 days post infection, trend
Text: Peripheral Blood Mononuclear cells (PBMCs) were purified and CD4+ T-cells selectively enriched using Bi-specific MAb CD3.8 (AIDS reagents) for 5 days and infected with the OGH reporter virus. HIV infection was monitored 3 days post infection using flow cytometry analysis (FIG. 4).
Human PBMCs were purified, selectively enriched for CD4+ T cells using Bi-specific MAb CD3.8 and infected with the OGH reporter virus, in the presence or absence of LEDGINs (FIG. 7a,b).
Human peripheral blood mononuclear cells (PBMCs), obtained from the Red Cross Blood transfusion Center (Mechelen, Belgium) according to approved bioethical guidelines of our institute (S57175-IRB00002047), were purified from fresh buffy coats using lymphoprep density gradient centrifugation (Stem cell technologies). The CD4+ T cells were selectively enriched using Bi-specific MAb CD3.8 (0.5 μg/mL, AIDS reagents) for 5 days. Cells were cultured in RPMI 1640, 15% v/v FBS, 0.1% v/v Gentamicin, 100 U/ml IL-2 (Peprotech) (T-cell medium, TCM). Enriched total CD4+ primary T cells were infected with single round reporter virus for 2 h at 37° C., washed twice in TCM and reseeded in medium containing different concentrations of LEDGIN CX014442. HIV infection was monitored 48 h post infection using flow cytometry analysis.

[11] = tested on: NL4.3 virus in primary CD4+ T cells
Text: Next we evaluated the multimodal effect of LEDGIN treatment on integration, assembly and reactivation in a multiple round reactivation model using WT HIV in resting CD4+ T-cells in order to model the in vivo situation. PHA/IL-2 activated primary (resting) CD4+ T cells were infected with NL4.3 virus in the presence of submicromolar concentrations of LEDGINs. At day four post infection (p.i.) LEDGINs were removed and cells were reseeded in the presence of PMA and PHA. Virus production upon reactivation was measured at day 7 p.i. by p24 ELISA.
Resting CD4+ T cells were purified using a custom-made EasySep negative selection kit (Stem Cell Technologies; 19052 cocktail, with the addition of CD25, CD69, and HLA-DR antibodies (catalogue number 19309VK)). […] Four days post-infection cells were washed twice using PBS and some cells were harvested for quantification of integrated proviral DNA using real time PCR (nested Alu-LTR PCR, (Butler et al., 2001; Lewin et al., 2008) normalized for input DNA by qPCR for the CCR5 gene as previously described (Zhang et al., 1999). Other cells were reseeded in the presence of 10 nM PMA (Sigma-Aldrich) together with 10 μg/mL PHA (Sigma-Aldrich) or left untreated. PHA activated feeder peripheral blood mononuclear cells (PBMCs) were added 24 h after the activating stimulus to amplify virus replication and enhance detection of the infection (Saleh et al., 2011). […]

[12] = compound concentration 0.78125 μM
[13] = compound concentration 1.5625 μM
[14] = compound concentration 3.125 μM

Compound: O=C(CCCCCCC(=O)Nc1ccccc1)NO [SAHA, Suberoylanilide Hydroxamic acid]
- reactivation of tCD34 expression [1]: 3- to 4 fold
- reactivation of tCD34 expression [2]: 2 fold

Compound: CCCC(C(=O)O)c1c(C)nc2ccc(Cl)cc2c1-c1ccccc1 (centres unmarked) [CX014442, 2-(6-chloro-2-methyl-4-phenylquinolin-3-yl)pentanoic acid]
- % CpG within 2 kb ([3]; compound concentration 0.54 μM): 2.33%
- % CpG within 4 kb ([3]; compound concentration 0.54 μM): 5.83%
- % DHS within 2 kb ([3]; compound concentration 0.54 μM): 24.07%
- % DHS within 4 kb ([3]; compound concentration 0.54 μM): 39.94%
- % TSS within 2 kb ([3]; compound concentration 0.54 μM): 2.00%
- % TSS within 4 kb ([3]; compound concentration 0.54 μM): 5.92%
- in RefGene ([3]; compound concentration 0.54 μM): 70.58%
- % CpG within 2 kb ([3]; compound concentration 1.5 μM): 2.37%
- % CpG within 4 kb ([3]; compound concentration 1.5 μM): 5.79%
- % DHS within 2 kb ([3]; compound concentration 1.5 μM): 20.94%
- % DHS within 4 kb ([3]; compound concentration 1.5 μM): 37.18%
- % TSS within 2 kb ([3]; compound concentration 1.5 μM): 2.41%
- % TSS within 4 kb ([3]; compound concentration 1.5 μM): 5.88%
- in RefGene ([3]; compound concentration 1.5 μM): 70.37%
- % CpG within 2 kb ([3]; compound concentration 3 μM): 1.73%
- % CpG within 4 kb ([3]; compound concentration 3 μM): 5.39%
- % DHS within 2 kb ([3]; compound concentration 3 μM): 21.49%
- % DHS within 4 kb ([3]; compound concentration 3 μM): 37.55%
- % TSS within 2 kb ([3]; compound concentration 3 μM): 1.97%
- % TSS within 4 kb ([3]; compound concentration 3 μM): 5.59%
- in RefGene ([3]; compound concentration 3 μM): 66.60%
- % CpG within 2 kb ([3]; compound concentration 6 μM): 2.97%
- % CpG within 4 kb ([3]; compound concentration 6 μM): 6.39%
- % DHS within 2 kb ([3]; compound concentration 6 μM): 21.78%
- % DHS within 4 kb ([3]; compound concentration 6 μM): 37.12%
- % TSS within 2 kb ([3]; compound concentration 6 μM): 3.03%
- % TSS within 4 kb ([3]; compound concentration 6 μM): 6.45%
- in RefGene ([3]; compound concentration 6 μM): 65.23** %
- % CpG within 2 kb ([3]; compound concentration 12 μM): 3.39%
- % CpG within 4 kb ([3]; compound concentration 12 μM): 7.35%
- % DHS within 2 kb ([3]; compound concentration 12 μM): 23.6%
- % DHS within 4 kb ([3]; compound concentration 12 μM): 38.57%
- % TSS within 2 kb ([3]; compound concentration 12 μM): 3.96** %
- % TSS within 4 kb ([3]; compound concentration 12 μM): 7.58%
- in RefGene ([3]; compound concentration 12 μM): 61.88*** %
- % CpG within 2 kb ([3]; compound concentration 25 μM): 4.97** %
- % CpG within 4 kb ([3]; compound concentration 25 μM): 10.26** %
- % DHS within 2 kb ([3]; compound concentration 25 μM): 22.19%
- % DHS within 4 kb ([3]; compound concentration 25 μM): 40.07%
- % TSS within 2 kb ([3]; compound concentration 25 μM): 4.30** %
- % TSS within 4 kb ([3]; compound concentration 25 μM): 8.94%
- in RefGene ([3]; compound concentration 25 μM): 60.93*** %
- % CpG within 2 kb ([3]; compound concentration 50 μM): 5.50%
- % CpG within 4 kb ([3]; compound concentration 50 μM): 11.72*** %
- % DHS within 2 kb ([3]; compound concentration 50 μM): 26.08%
- % DHS within 4 kb ([3]; compound concentration 50 μM): 40.67%
- % TSS within 2 kb ([3]; compound concentration 50 μM): 6.94%
- % TSS within 4 kb ([3]; compound concentration 50 μM): 12.68*** %
- in RefGene ([3]; compound concentration 50 μM): 54.55%
- epigenetic preference of integration for transcriptionally active regions ([3]; histone marks, data not shown): inverted in a dose dependent manner
- concentration at which a significant difference compared to wt in global integration preferences was reached ([3]; shift out of transcriptionally active regions): above 12 μM
- % in UCR [4, 12]: 6.36%
- % in transcript. Units [4, 12]: 74.95%
- % within 50 kb of TSS [4, 12]: 31.13%
- % within 300 kb of miRNAs [4, 12]: 25.54%
- % within 300 kb of onco [4, 12]: 38.15%
- Total % safe [4, 12]: 11.14%
- % in UCR [4, 13]: 7.24%
- % in transcript. Units [4, 13]: 75.11%
- % within 50 kb of TSS [4, 13]: 29.28%
- % within 300 kb of miRNAs [4, 13]: 22.52%
- % within 300 kb of onco [4, 13]: 35.47%
- Total % safe [4, 13]: 10.36%
- % in UCR [4, 14]: 7.77%
- % in transcript. Units [4, 14]: 71.91%
- % within 50 kb of TSS [4, 14]: 28.57%
- % within 300 kb of miRNAs [4, 14]: 23.34%
- % within 300 kb of onco [4, 14]: 35.45%
- Total % safe [4, 14]: 11.31%
- % in UCR ([4]; compound concentration 6.25 μM): 6.03%
- % in transcript. Units ([4]; compound concentration 6.25 μM): 70.48%
- % within 50 kb of TSS ([4]; compound concentration 6.25 μM): 29.46%
- % within 300 kb of miRNAs ([4]; compound concentration 6.25 μM): 21.76%
- % within 300 kb of onco ([4]; compound concentration 6.25 μM): 33.03%
- Total % safe ([4]; compound concentration 6.25 μM): 13.32%
- % in UCR ([4]; compound concentration 12.5 μM): 9.39%
- % in transcript. Units ([4]; compound concentration 12.5 μM): 67.42%
- % within 50 kb of TSS ([4]; compound concentration 12.5 μM): 31.33%
- % within 300 kb of miRNAs ([4]; compound concentration 12.5 μM): 24.89%
- % within 300 kb of onco ([4]; compound concentration 12.5 μM): 33.03%
- Total % safe ([4]; compound concentration 12.5 μM): 13.24%
- % in UCR ([4]; compound concentration 25 μM): 6.95%
- % in transcript. Units ([4]; compound concentration 25 μM): 66.06%
- % within 50 kb of TSS ([4]; compound concentration 25 μM): 29.80%
- % within 300 kb of miRNAs ([4]; compound concentration 25 μM): 21.52%
- % within 300 kb of onco ([4]; compound concentration 25 μM): 35.26%
- Total % safe ([4]; compound concentration 25 μM): 14.57%
- % in UCR ([4]; compound concentration 50 μM): 5.98%
- % in transcript. Units ([4]; compound concentration 50 μM): 59.57%
- % within 50 kb of TSS ([4]; compound concentration 50 μM): 32.54%
- % within 300 kb of miRNAs ([4]; compound concentration 50 μM): 22.25%
- % within 300 kb of onco ([4]; compound concentration 50 μM): 35.65%
- Total % safe ([4]; compound concentration 50 μM): 16.51%
- % eGFP positive cells (transduction efficiency) [5]: dose-dependent decrease
- % eGFP+, mKO2+ cells [6]: dose dependent decrease
- overall % mKO2 positive cells [6]: dose dependent decrease
- EC50 [7]: 7.24 µM
- reactivation of eGFP+, mKO2+ cells after TNFα relative to DMSO [8]: 1.5-2 fold
- IC50 [9]: 0.06 µM
- % latently infected cells [10]: increased
- number of proviral DNA copies ([11]; 4 days p.i., submicromolar concentrations): reduced
- p24 production upon reactivation with PMA and PHA ([11]; day 7 p.i., average of two donors): reduced
